Entries after “also recorded” stand apart in the source; their conditions may differ. Where two headings read alike, the source gives them in different places. Where a SMILES comes first, the peptide text is derived from it. The star is where a group is joined. Cbz = O=C(OCc1ccccc1)*
How the values were obtained:
C2C12 myoblasts = assay: Differentiation of C2C12 myoblasts to myotubes under drug treatment, without ceramide; assay type: cell-based, mouse; conditions: for ability to facilitate myotube differentiation without the presence of ceramide: C2C12 cells not treated with C2-ceramide, Fig. 15
Procedure: The C2C12 cells (C2C12 mouse C3H muscle myoblast purchased from Sigma) were maintained in modified Eagle's medium (DMEM) with 10 % fetal bovine serum (FBS) and 1 % penicillin/streptomycin (P/S) solution in a humidified incubator with 5 % CO2 at 37 °C. […] […] Then, the medium was changed twice, at two-day intervals, with a differentiation medium (DMEM with 2% FBS and 1% P/S) with drug candidates to differentiate myoblasts into myotubes. […] Cell viability was measured spectrophotometrically by Cell Counting kit-8. The expression level of target proteins (ANXA2, CLMP, Cyc1, and SDHB), myogenic markers (MyoG and MyH3) and α-Tubulin (internal control) were detected using Western blots. All experiments were performed with 3 replicates.

[1] = system: C2-ceramide treated C2C12 cell line; assay: In vitro sarcopenia model (Example 1): myotube phenotype and MyH3 immunofluorescence; assay type: cell-based, mouse; conditions: for MyH3 intensity compared to the control group: mean brightness of MyH3 staining, Fig. 5B
Procedure: (§1) The C2C12 cells (C2C12 mouse C3H muscle myoblast purchased from Sigma) were maintained in modified Eagle's medium (DMEM) with 10 % fetal bovine serum (FBS) and 1 % penicillin/streptomycin (P/S) solution in a humidified incubator with 5 % CO2 at 37 °C. 40 µM C2-ceramide was used for developing an in vitro model of sarcopenia in the C2C12 cell line, i.e., in vitro sarcopenia model. One day after 300×10^3 cells were seeded per well in a 6-well plate, N-acetyl-D-sphingosine (C2-ceramide) and the drug candidates (dissolved in DMSO) were administered in the maintenance condition (DMEM with 10 % FBS and 1 % P/S) for two days. Then, the medium was changed twice, at two-day intervals, with a differentiation medium (DMEM with 2% FBS and 1% P/S) with drug candidates to differentiate myoblasts into myotubes. Furthermore, siRNAs for Anxa2 and Clmp and overexpression plasmids for Cyc1 and Sdhb were transfected into the cells to examine the effect of the target proteins on the in vitro sarcopenia model. Cell viability was measured spectrophotometrically by Cell Counting kit-8. The expression level of target proteins (ANXA2, CLMP, Cyc1, and SDHB), myogenic markers (MyoG and MyH3) and α-Tubulin (internal control) were detected using Western blots. All experiments were performed with 3 replicates.
The cells were, once again, washed 3 times in PBS and then permeabilized in 0.1 % TritonX-100 for 15 min at room temperature. The cells were then incubated for 1 h in 2 % bovine serum albumin (BSA) solution followed by overnight incubation in anti-Myosin/MyH3 diluted in 0.1 % BSA at 4 °C. Primary antibody solution was washed away with PBS, then incubated in fluorescent dye-labelled secondary antibody diluted in 0.1 % BSA for 45 min at room temperature protected from light. Finally, the samples were washed 3 times with 1xPBS-T and mounted with DAPI mount putted cover glass on the cells.
The cell brightness was measured by ImageJ software (NIH). For each experiment condition, three different areas were photographed with same area size (5038848 by ImageJ), the mean brightness of each image was obtained for statistical analysis. The t test was used to check the statistical differences between any two experiment conditions.

[2] = system: C2-ceramide treated C2C12 cell line; assay: In vitro sarcopenia model (Example 1): Western blot of target proteins and myogenic markers; assay type: cell-based, mouse
Procedure: as §1
The cells were washed with PBS and lysed with CelLytic M (C2978, Sigma-Aldrich) lysis buffer containing protease inhibitors. The cell lysates were centrifuged at 12 000 rpm for 5 min and supernatants were collected. A protein assay solution (Bio-Rad) was used for the determination of protein concentration. The absorbance of the proteins was measured spectrophotometrically at 595 nm by microplate reader (Hidex Sense Beta Plus). Protein electrophoresis was performed using Mini-PROTEAN® TGXTM Precast Gels (Bio-Rad) and the separated proteins were transferred to a Trans-Blot Turbo Mini 0.2 um PVDF Transfer Packs membrane (Bio-Rad) by using Trans-Blot® TurboTM Transfer System (Bio-Rad). The membrane was blocked with 5 % skim milk for 30 min at 4 °C with gentle rocking. It was immunoblotted with primary antibodies against MyH3, MyoG, ANXA2, CLMP, Cyc1, and SDHB, as well as α-Tubulin, as an internal control, overnight at 4 °C with gentle rocking. Goat anti-Rabbit HRP or goat anti-mouse IgG-HRP was used as secondary antibody. Reaction with secondary antibody proceeded for 30 min at 4 °C with gentle rocking.

[3] = Cell viability assay (MTT); conditions: mouse, c2c12 cells
Procedure: The effects of the drugs on the C2C12 cell viability were tested by MTT (Thiazolyl Blue Tetrazolium Bromide) assay. 1×10^4 cells were seeded per well in a 96-well plate in 100 µL growth media. After one day of cell seeding, the cells were treated with different concentrations of the drugs dissolved in 0.1 % DMSO and 100 µL of the media for one day. After the treatment period, 5 mg/ml MTT (M2128, Sigma-Aldrich) solution in PBS (10 µL) was added to each well. After one hour, the MTT solution and all media were removed from the wells. 100 µl of DMSO was added and mixed to dissolve the formazan crystals. Cell viability was analysed by measuring the absorbance of the dissolved formazan at a wavelength of 570 nm with a microplate reader (Hidex Sense Beta Plus).

[4] = system: C2-ceramide treated C2C12 cell line; assay: In vitro sarcopenia model (Example 2): Western blot of target genes and myogenic markers; assay type: cell-based, mouse
Description: C2-ceramide ([…], Sigma Aldrich) was used for inducing sarcopenia in the C2C12 cell line. […] Then, the medium was changed twice, at two-day intervals, with a differentiation medium (DMEM with 2% FBS and 1% P/S) to differentiate myoblasts into myotubes. Because C2-ceramide may affect mitochondrial activity in muscle cells, another cell model was created without introducing ceramide. After completion of myotube differentiation, cells were harvested for western blot analysis. […] The cell lysates were centrifuged at 12.000 rpm for 10 min and supernatants were collected. Protein Assay Dye Reagent (5000006, Bio-Rad) was used for the determination of protein concentration. The absorbance of the proteins was measured spectrophotometrically at 595 nm by a microplate reader (Hidex Sense Beta Plus). […] The membrane was blocked with 5 % skim milk for 30 min at 4 °C with gentle rocking. After blocking, the membrane was treated with primary antibodies: anti-AGL (ab133720, Abcam, UK) anti-PDHX (HPA038484, Human Protein Atlas, Sweden), anti-Myogenin (ab124800, Abcam), anti-Myosin/MyH3 (ab124205, Abcam), anti-Beta actin (ab8227, Abam) as a loading control overnight at 4 °C on a rocking platform. After the treatment of primary antibodies, the membrane was washed three times with TBS-T buffer ([…]-7500-100, Medicago). Then, Goat anti-Rabbit IgG-HRP (ab205718, Abcam) was treated as the secondary antibody for 30 min at 4 °C with gentle rocking.

ubiquitinated proteins = conditions: mice, Sakai et al. [39]; cited from earlier work
[5] = selected non-toxic concentration of drug candidate, Fig. 11
[6] = 40 µM ceramide plus drug candidate at selected concentration
[7] = 5 µM, in vitro sarcopenia model
[8] = drug plus ceramide (sarcopenic cells), concentration not given
[9] = 2.5 µM, in vitro sarcopenia model
[10] = 20 µM, in vitro sarcopenia model
[11] = 40 µM ceramide alone versus control, 4 days of differentiation

## CCCCCCCCCC(=O)NC(CN1CCOCC1)C(O)c1ccccc1 (racemic) [DL-PDMP]
C2C12 myoblasts; [5]
  differentiation of myoblasts to myotubes: highly differentiated
[1]; [6]
  effect on myotubes (phenotypic change): Only treatment with withaferin-A improved the myotubes

## OCCCNc1cc(-c2ccnc(Nc3cccc(Cl)c3)n2)ccn1 [CGP-60474]
C2C12 myoblasts; [5]
  differentiation of myoblasts to myotubes: highly differentiated
[1]; [6]
  effect on myotubes (phenotypic change): Only treatment with withaferin-A improved the myotubes

## Nc1[nH]nc2nnc(-c3c(-c4ccccc4)nn4ccccc34)cc12 [FR-180204]
C2C12 myoblasts
  ability to facilitate myotube differentiation without the presence of ceramide: exhibited the ability to facilitate myotube differentiation
  ability to improve the myotube fusion in healthy muscle myoblasts: ability to improve the myotube fusion
[1]; [6]
  effect on myotubes (phenotypic change): promising effect in enhancing myotube cells
[2]; [7]
  Cyc1 expression: significantly increased
  MyH3 expression: significantly increased
  MyoG expression: significantly increased
[2]; [8]
  expression level of CYC1: significantly increase
  expression level of MyH3: significantly increase
  expression level of MyoG: significantly increase

## CC(C)C[C@@H](C=O)NC(=O)[C@H](CC(C)C)NC(=O)[C@H](CC(C)C)NC(=O)OCc1ccccc1 [MG-132] (Cbz-Leu-Leu-Leu-aldehyde)
[3]
  MNTC at 24 h: 25 nM
[4]; sarcopenic cells
  expression levels of MyH3: significantly increase
  expression levels of MyoG: significantly increase
[4]; sarcopenic cells, compared to the in vitro sarcopenia model
  expression of myogenic markers: increased
[4]; selected non-toxic optimal dose, in vitro sarcopenia model
  expression of AGL: enhanced; also recorded: significantly increase
Ubiquitinated proteins
  expression levels of ubiquitinated proteins in atrophic muscle cells: downregulation

## Cc1ccc(CNc2ncnc3ccc(-c4ccc(CO)o4)cc23)o1 [ML-167]
C2C12 myoblasts
  ability to facilitate myotube differentiation without the presence of ceramide: exhibited the ability to facilitate myotube differentiation
  ability to improve the myotube fusion in healthy muscle myoblasts: ability to improve the myotube fusion
[1]; [6]
  effect on myotubes (phenotypic change): promising effect in enhancing myotube cells
[2]; [9]
  Cyc1 expression: notable upregulation
  MyH3 expression: notable upregulation
  MyoG expression: notable upregulation
[2]; [7]
  Cyc1 expression: notable upregulation
  MyH3 expression: notable upregulation
  MyoG expression: notable upregulation
[2]; [8]
  expression level of CYC1: significantly increase
  expression level of MyH3: significantly increase
  expression level of MyoG: significantly increase

## O=C1c2c(O)ccc(O)c2C(=O)c2c(NCCNCCO)ccc(NCCNCCO)c21 [Mitoxantrone]
C2C12 myoblasts; [5]
  differentiation of myoblasts to myotubes: less differentiated

## Cc1ccc([N+](=O)[O-])cc1S(=O)(=O)N(C)/N=C/c1cnc2ccc(Br)cn12 [PIK-75]
C2C12 myoblasts; [5]
  differentiation of myoblasts to myotubes: highly differentiated
[1]; [6]
  effect on myotubes (phenotypic change): Only treatment with withaferin-A improved the myotubes

## CC1=C(CO)C(=O)OC(C(C)C2CCC3C4CC5OC56C(O)C=CC(=O)C6(C)C4CCC23C)C1 (centres unmarked) [Withaferin-A, withaferin-A]
[3]
  MNTC at 24 h: 50 nM
C2C12 myoblasts; [5]
  differentiation of myoblasts to myotubes: highly differentiated
[1]; [6]
  effect on myotubes (phenotypic change): improved the myotubes similarly to the control sample
[1]
  MyH3 intensity compared to the control group: no statistical difference
[2]; [8]
  expression level of CYC1: activating effect
  expression level of MyH3: increase; also recorded: expressed as much as control samples
  expression level of MyoG: increase
[2]; drug plus ceramide, concentration not given
  expression level of ANXA2: inhibitory effect; also recorded: decreased

## COC[C@H]1OC(=O)c2coc3c2[C@@]1(C)C1=C(C3=O)[C@@H]2CCC(=O)[C@@]2(C)C[C@H]1OC(C)=O [Wortmannin]
C2C12 myoblasts
  differentiation of myoblasts to myotubes: moderately differentiated
[1]
  effect on myotubes (phenotypic change): Only treatment with withaferin-A improved the myotubes

## CN(C)CCOC(c1ccc(Cl)cc1)c1ccccn1 (centres unmarked) [carbinoxamine]
[1]; [6]
  effect on myotubes (phenotypic change): promising effect in enhancing myotube cells
[2]; [10]
  CYC1 expression: large improvement
  MyH3 expression: increase
  MyoG expression: increase
[2]; [8]
  expression level of CYC1: increase
  expression level of MyH3: increase
  expression level of MyoG: increase

## CCCCCCCCCCCCC/C=C/[C@@H](O)[C@H](CO)NC(C)=O [ceramide, N-acetyl-D-sphingosine]
[1]; 40 µM ceramide alone, after 4 days of differentiation
  myotube formation: less myotubes were formed
[1]
  MyH3 intensity compared to the control group: significantly deceased; also recorded: significantly decreased
[2]; [11]
  expression level of MyH3: decreased
  expression level of MyoG: decreased
[2]; ceramide alone versus control
  expression level of ANXA2: increased

## CC(C)(Oc1ccc(Cl)cc1)C(=O)O [clofibric-acid, clofibric acid]
[3]
  MNTC at 24 h: 5000 nM

## CC(=O)c1c(C)c2cnc(Nc3ccc(N4CCNCC4)cn3)nc2n(C2CCCC2)c1=O [palbociclib]
[3]
  MNTC at 24 h: 5000 nM

## Cc1c(C)c2c(c(C)c1O)CCC(C)(COc1ccc(CC3SC(=O)NC3=O)cc1)O2 (centres unmarked) [troglitazone]
[3]
  MNTC at 24 h: 500 nM

— patent publication EP4616854A1, “TREATMENT OF MUSCLE SARCOPENIA” (Molius Saglik Teknolojileri Anonim Sirketi, priority 2024, dated 2025)
